Results from article PMC4640066 (Nature Communications, 2015).

Tests used:
α/β-tubulin = target: T1, α/β-tubulin (Sus scrofa, UniProt P02550+P02554); assay: Tryptophan-based drug-binding assay, α/β-tubulin; parameters: species or system porcine; settings: tryptophan fluorescence decrease; 1 μM protein; mean±s.d., three independent experiments
T1 construct: α/β-Tubulin was purified from porcine brain; from tissue; host or cells: porcine brain
Method: γ-TuSC was purified as described. Briefly, γ-TuSC was expressed in HighFive cells and purified by sequential steps of Ni-NTA (Macherei-Nagel) purification, MonoQ column purification (GE Healthcare) and size exclusion (Superdex 200 column, GE Healthcare)[14]. α/β-Tubulin was purified from porcine brain through four cycles of polymerization and depolymerization using 1 M PIPES buffer (1 M PIPES-KOH, 1 mM EGTA, 1 mM MgCl2, pH 6.8) for effective removal of MT-associated proteins.
Gel filtration buffer for γ-tubulin purification (50 mM MES pH 6.6, 500 mM KCl, 5 mM MgCl2, 1 mM EGTA and 1 mM DTT) supplemented with 10% of glycerol was used as an assay buffer. γ-tubulin and α/β-tubulin were diluted in this assay buffer to reach a final protein concentration of 1 μM. A final concentration of 10 μM or 1 mM GTP was added to the samples. Proteins were incubated for 30 min with compounds (final DMSO concentration was 1%; 2% for AG1 and gatastatin). […] Dissociation constants were calculated from fitting curves of decreasing fluorescence (ΔFL) using the GraphPad Prizm software.

[1] = tested on: DMSO-stimulated, γ-tubulin-independent aster formation; assay: DMSO-stimulated aster formation in M-phase Xenopus egg extracts; type: biochemical; settings: M-phase-arrested Xenopus egg extracts, 5% DMSO, 20 min at 20 °C
Method: Cytostatic factor (CSF)-arrested M phase Xenopus egg extracts (CSF extracts) were prepared. Briefly, unfertilized eggs were crushed by 10,700g centrifugation for 20 min. M phase extracts were mixed with 0.5 μM Cy3-labelled α/β-tubulin and various concentrations of compounds. After incubation for 30 min on ice, 15 μM RanQ69L, 200 sperm nuclei per μl or 5% DMSO were added and incubated for 30 min on ice. After incubation for 20 min at 20 °C (for the samples with sperm nuclei, the incubation time was 30 min), 1.5 μl sample was fixed with 1.5 μl fix solution (0.3 volume of 37% formaldehyde, 0.6 volume of 80% glycerol and 0.1 vol of 10 × MMR solution (50 mM HEPES, pH 7.8, 1 M NaCl, 20 mM KCl, 10 mM MgCl2, 20 mM CaCl2 and 1 mM EDTA)), followed by the squash fix.
Images were acquired using a microscope (Axiovert 200 M; Carl Zeiss Inc.) equipped with a plan-Apochromat × 63 NA 1.3 oil objective lens (Carl Zeiss Inc.), a Cy3 emission filter and a Cascade:1 K (Photometrics Inc.) camera, and the AxioVision software (Carl Zeiss Inc.). The aster size and fluorescence intensity were quantified using a macro written in MATLAB[41].

[2] = tested on: HeLa cells expressing EB3-EGFP (interphase); assay: EB3-EGFP signal tracking, interphase cells; type: cell-based, human; settings: 15 min; for Track length / Track lifetime / Velocity: interphase HeLa EB3-EGFP, mean±s.d.; for Track numbers: interphase, from a 144-μm^2 area inside the cell
Method: A HeLa ‘Kyoto' cell line stably expressing EB3-EGFP (a kind gift from Dr J. Ellenberg) was maintained in DMEM+GlutaMAX (Gibco) supplemented with 10% FBS, 2 mM L-glutamine, 100 U ml^−1 penicillin, 100 μg ml^−1 streptomycin, 1 mM sodium pyruvate and 0.5 mg ml^−1 G418. Cells were seeded into eight-well Lab-Tek chambers (Nunc, Rochester, NY) for 24-h prior imaging. For imaging, the medium was exchanged to Live Cell Imaging Solution (Molecular Probes Life Technologies) supplemented as described above and containing various concentrations of AG1 or gatastatin. Interphase cells were incubated with drugs for 15 min and mitotic cells were treated as described in Fig. 4c. Then, EB3 tracks were observed under a PerkinElmer UltraVIEW ERS Spinning Disk microscope (Software: UltraVIEW ERS Imaging Suite) equipped with a Plan-APOCHROMAT × 100/1.4 Oil DIC objective, a Confocal Scanner Unit (Yokogawa CSU 22), a Hamamatsu EM CCD camera (C9100-50) and a 488-nm Argon laser at 37 °C, and time-lapse sequences were performed for 60 s with a 400-ms interval. Automatic analysis of EB3-EGFP signal tracks was performed with ImageJ (http://imagej.nih.gov/ij/) and Matlab (Mathworks) as described.

HeLa cells = assay: Anaphase spindle elongation, time-lapse anaphase duration; type: cell-based, human; settings: 30 μM, after MG132 washout, 1 μM reversine, control 18.6 min
Method: HeLa cells expressing mCherry-H2B and EGFP-α-tubulin, HeLa ‘Kyoto' cell line stably expressing CEP55-LAPtag (a kind gift from Dr A.A. Hyman) and HeLa cells expressing RFP-H2B and GFP-LifeAct (a kind gift from Dr J. Ellenberg) were cultured in DMEM+GlutaMAX (Gibco) supplemented with 10% FBS, 100 U ml^−1 penicillin, 100 μg ml^−1 streptomycin and 1 mM sodium pyruvate in a humidified atmosphere containing 5% CO2. To observe the transition from metaphase to anaphase, telophase and cytokinesis, cells were arrested at metaphase by sequential treatment of STLC and MG132. After MG132 removal by washing of cells with medium three times, the medium was changed to Live Cell Imaging Solution (Molecular Probes Life Technologies) supplemented as described above containing 1 μM of MPS1 inhibitor reversine and either DMSO or 30 μM of gatastatin. Time-lapse observation was performed at 37 °C using the DeltaVision Olympus IX71 microscope (Applied Precision) equipped with CoolSNAP HQ camera (Photometrics). Images were taken every 3 min with 12 z-stacks (1 μm per stack) for 3 h. The anaphase duration (between chromosome separation and start of midbody formation) was calculated.

T1 sequence (P02554 whole entry): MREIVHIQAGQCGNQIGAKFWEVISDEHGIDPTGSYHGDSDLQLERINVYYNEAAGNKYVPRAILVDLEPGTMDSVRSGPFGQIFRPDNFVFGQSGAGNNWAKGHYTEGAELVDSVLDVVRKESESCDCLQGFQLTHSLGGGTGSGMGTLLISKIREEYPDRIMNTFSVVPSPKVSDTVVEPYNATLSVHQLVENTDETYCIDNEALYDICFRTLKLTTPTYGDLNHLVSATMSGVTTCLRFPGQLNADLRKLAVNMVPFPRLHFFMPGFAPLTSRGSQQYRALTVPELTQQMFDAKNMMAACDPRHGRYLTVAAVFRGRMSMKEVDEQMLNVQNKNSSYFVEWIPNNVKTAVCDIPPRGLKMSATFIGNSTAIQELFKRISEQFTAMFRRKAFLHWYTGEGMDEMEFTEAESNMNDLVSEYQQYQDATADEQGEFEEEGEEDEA
T1 sequence (P02550 whole entry): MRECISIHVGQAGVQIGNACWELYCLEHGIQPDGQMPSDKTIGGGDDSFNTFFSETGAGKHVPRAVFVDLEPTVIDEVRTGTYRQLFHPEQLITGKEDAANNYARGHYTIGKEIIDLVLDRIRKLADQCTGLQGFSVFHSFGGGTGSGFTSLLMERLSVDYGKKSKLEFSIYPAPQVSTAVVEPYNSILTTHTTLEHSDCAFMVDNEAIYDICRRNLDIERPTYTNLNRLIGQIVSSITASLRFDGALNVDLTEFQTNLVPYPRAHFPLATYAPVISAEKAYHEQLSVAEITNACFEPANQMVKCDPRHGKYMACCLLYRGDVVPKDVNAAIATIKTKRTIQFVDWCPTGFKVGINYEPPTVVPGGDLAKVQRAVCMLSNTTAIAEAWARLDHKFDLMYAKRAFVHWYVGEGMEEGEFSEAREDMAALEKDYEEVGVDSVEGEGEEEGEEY

Question: How did the Kd (α/β-tubulin) turn out when `COc1cc2c(=O)c(-c3cc(OC)c4c(c3OC)OCO4)coc2cc1OCc1ccccc1` [Gatastatin, O^7-demethylbenzyl AG1] was run?
Answer: The Kd was 42.5 ± 36.7 µM.

Question: And the IC50 [1]?
Answer: The IC50 was > 100 µM.

Question: And the Track length ([2]; 3 μM)?
Answer: Its Track length is 1.03±0.16 μm.

Question: And the Track lifetime ([2]; 3 μM)?
Answer: The Track lifetime was 3.45 ± 0.71 s.

Question: And the Velocity ([2]; 3 μM)?
Answer: The Velocity was 12.49±1.67 μm min^−1.

Question: What about the Track numbers ([2]; 3 μM) of the same compound?
Answer: The Track numbers was 94±27.

Question: What about the Track length ([2]; 10 μM) of the same compound?
Answer: Its Track length is 0.84±0.10 μm.

Question: What about the Track lifetime ([2]; 10 μM) of the same compound?
Answer: The Track lifetime was 3.67 ± 0.62 s.

Question: What about the Velocity ([2]; 10 μM) of the same compound?
Answer: Its Velocity is 10.03±0.99 μm min^−1.

Question: And the Track numbers ([2]; 10 μM)?
Answer: The Track numbers was 83±30.

Question: What about the Track length ([2]; 30 μM) of the same compound?
Answer: Its Track length is 0.71±0.08 μm.

Question: What about the Track lifetime ([2]; 30 μM) of the same compound?
Answer: The Track lifetime was 3.84 ± 0.50 s.

Question: And the Velocity ([2]; 30 μM)?
Answer: The Velocity was 8.43±0.81 μm min^−1.

Question: What about the Track numbers ([2]; 30 μM) of the same compound?
Answer: Its Track numbers is 89±32.

Question: And the Anaphase duration (HeLa cells)?
Answer: Its Anaphase duration is 32.4 min.
